Experimental data: patent US20090181972A1, “Novel Inhibitors of Cysteine Proteases, the Pharmaceutical Compositions Thereof and their Therapeutic Applications” (priority 2005, published 2009)

Columns and labels:
[1] = target: Cathepsin B (Homo sapiens, UniProt P07858); assay: Cathepsin B activity assay; assay type: biochemical; settings: 36 μM z-RR-AMC, 3.6 nM enzyme; pre-incubated 30 minutes at 25° C., 60 minutes at 37° C.; sigmoidal fit
Protocol: Cathepsin B was diluted in Cathepsin B buffer (20 mM Tris HCl pH 6.8; 1 mM EDTA; 1 mM DTT). Compounds stocks (100 mM) were stored at −20° C. in DMSO. Compounds were tested at the following final concentrations: 100 μM; 33.3 μM; 11.1 μM; 3.7 μM; 1.23 μM; 412 nM; 137 nM; 45.7 nM; 15.2 nM; 5 nM. Reactions were performed as duplicates in Black LJL 96 well plates (HE microplates; Molecular Devices; 20 μl final reaction volume). The substrate concentration for cathepsin B specificity assay was 36 μM (z-RR-AMC; Calbiochem). The concentration of the enzyme (Cathepsin B) in specificity assays was 3.6 nM. The concentrations were determined in order to perform specificity assays under initial velocities at fixed substrate concentration. Compounds were pre-incubated with enzymes for 30 minutes at 25° C. Reactions were initiated by addition of substrate to the plates containing the enzymes (+/− compounds) diluted in assay buffer. Reactions were incubated for 60 minutes at 37° C. Reactions were stopped by adding acetic acid (100 mM final). Readings were performed on a Pherastar Fluorescent Reader (BMG). δ Emission 380 nm; δ Excitation=460 nm. Data (mean values +/− standard deviation) were analyzed as % of control (no compound) and plotted as percentage versus the Log of the compound concentration using GraphPad (Prism). Data were fitted to a sigmoidal model (variable slope).

[2] = target: T1, USP5 (Homo sapiens, UniProt P45974); assay: USP5 activity assay; assay type: biochemical; settings: 400 nM Ub-AMC, 300 pM enzyme; pre-incubated 30 minutes at 25° C., 60 minutes at 37° C.; sigmoidal fit; read-out: USP 5
T1 sequence (P45974 1-858): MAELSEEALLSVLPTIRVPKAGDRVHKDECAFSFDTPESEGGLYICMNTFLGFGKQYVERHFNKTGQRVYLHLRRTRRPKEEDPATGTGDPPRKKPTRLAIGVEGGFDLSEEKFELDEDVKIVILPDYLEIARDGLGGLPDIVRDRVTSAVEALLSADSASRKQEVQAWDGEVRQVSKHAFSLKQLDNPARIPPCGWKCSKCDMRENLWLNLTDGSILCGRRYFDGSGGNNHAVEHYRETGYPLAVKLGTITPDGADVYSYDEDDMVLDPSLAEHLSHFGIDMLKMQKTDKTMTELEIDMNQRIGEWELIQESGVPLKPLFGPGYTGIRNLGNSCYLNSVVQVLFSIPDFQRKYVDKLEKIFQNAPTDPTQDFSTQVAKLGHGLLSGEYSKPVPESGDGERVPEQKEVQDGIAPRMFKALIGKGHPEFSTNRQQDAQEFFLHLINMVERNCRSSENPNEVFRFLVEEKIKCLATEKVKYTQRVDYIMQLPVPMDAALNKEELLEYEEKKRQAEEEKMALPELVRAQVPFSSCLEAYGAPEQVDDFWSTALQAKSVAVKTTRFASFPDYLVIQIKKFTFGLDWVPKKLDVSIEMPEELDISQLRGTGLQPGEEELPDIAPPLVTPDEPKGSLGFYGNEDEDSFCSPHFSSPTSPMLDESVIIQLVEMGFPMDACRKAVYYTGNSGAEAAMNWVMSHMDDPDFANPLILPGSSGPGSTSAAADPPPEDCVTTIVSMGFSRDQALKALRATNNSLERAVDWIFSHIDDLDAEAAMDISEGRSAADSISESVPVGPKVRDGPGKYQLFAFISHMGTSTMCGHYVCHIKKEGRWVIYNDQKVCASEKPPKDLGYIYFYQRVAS
Protocol: USP5 was diluted in USP buffer (50 mM Tris HCl; 0.5 mM EDTA; 5 mM DTT; 0.01% Triton X-100; Bovine Serum Albumin 0.05 mg.ml^−1 pH 7.6). Compounds stocks (100 mM) were stored at -20° C. in DMSO.
Reactions were performed as duplicates in Black LJL 96 well plates (HE microplates; Molecular Devices; 20 μl final reaction volume). The substrate concentration for USP5 was 400 nM Ub-AMC (Boston Biochem). The concentrations of the enzyme (USP5) in specificity assays was 300 pM. The concentrations were determined in order to perform specificity assays under initial velocities at fixed substrate concentration. Compounds were pre-incubated with enzymes for 30 minutes at 25° C. Reactions were initiated by addition of substrate to the plates containing the enzymes (+/− compounds) diluted in assay buffer. Reactions were incubated for 60 minutes at 37° C. Reactions were stopped by adding acetic acid (100 mM final). Readings were performed on a Pherastar Fluorescent Reader (BMG). λ Emission 380 nm; λ Excitation=460 nm. Data (mean values +/− standard deviation) were analyzed as % of control (no compound) and plotted as percentage versus the Log of the compound concentration using GraphPad (Prism). Data were fitted to a sigmoidal model (variable slope).

[3] = test system: PC-3 prostate cancer cells; assay: PC3 cell viability and proliferation assay (MTS); assay type: cell-based; settings: 72 hours incubation, mean of three independent experiments, read-out: PC3 GI50 D3
Method in brief: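 PC-3 cells, seeded 24 h earlier, were treated in triplicate at 5 nM–10 μM with 0.5% final DMSO for 72 hours. Viability was read by 2-hour MTS conversion and absorbance at 492 nm. GI50 came from a sigmoidal variable-slope fit, averaged over three independent experiments.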

For “6-(7)-Chloro-1-methyl-2,3,4,10,10a-pentaaza-cyclopenta[b]fluoren-9-one [Example 3/A]”, the IC50 [1] was 17.4 µM, the IC50 [2] was 1.54 µM and the GI50 [3] was 0.994 µM.

For `CC(C)c1nnc2nc3c(nn12)C(=O)c1ccccc1-3` [Example 1l/A, 1-lsopropyl-2,3,4,10,10a-pentaaza-cyclopenta[b]fluoren-9-one], the IC50 [1] was 9.2 µM and the IC50 [2] was 3.9 µM.

With `CCc1nnc2nc3c(nn12)C(=O)c1cc(OC)c(OC)cc1-3` [Example 5b/A, 1-Ethyl-6,7-dimethoxy-2,3,4,10,10a-pentaaza-cyclopenta[b]fluoren-9-one] the IC50 [2] was 4.8 µM.
